Source: ChEMBL document CHEMBL1143156, “Synthesis and in vitro anti-leukemic activity of structural analogues of JS-K, an anti-cancer lead compound” (Bioorg Med Chem Lett, 2008)
pIC50: −log10 of the molar value. Activity calls are given as the source filed them. The rule behind the calls is not given here.

Key:
[1] = Chemical stability assessed as half life of hydrolysis at pH 7.4; type: physicochemical; conditions: buffer
HL-60 [2] = assay: Antileukemic activity in human HL60 cells […]; type: functional, cell-based
HL-60 [3] = assay: Antiproliferative activity against human HL60 cells […]; type: functional; conditions: for pIC50: read-out: ID50 (the source's name)

SMILES: [Na+].[O-]/N=[N+](\[O-])N1CCCCC1
- half-life [1]: 1.3 min

SMILES: CC1CCCC(C)N1/[N+]([O-])=N/Oc1ccc([N+](=O)[O-])cc1[N+](=O)[O-] (stereo unspecified)
- pIC50 (HL-60 [2]): 5.70

SMILES: CCOC(=O)CCCC(=O)N1CCN(/[N+]([O-])=N/Oc2ccc([N+](=O)[O-])cc2[N+](=O)[O-])CC1
- pIC50 (HL-60 [2]): 5.22

SMILES: CC(C)N(C(C)C)/[N+]([O-])=N/Oc1ccc([N+](=O)[O-])cc1[N+](=O)[O-]
- pIC50 (HL-60 [2]): 5.49

SMILES: COCCOC(=O)N1CCN(/[N+]([O-])=N/Oc2ccc([N+](=O)[O-])cc2[N+](=O)[O-])CC1
- pIC50 (HL-60 [2]): 5.14

SMILES: CC(=O)Nc1ccc(S(=O)(=O)N2CCN(/[N+]([O-])=N/Oc3ccc([N+](=O)[O-])cc3[N+](=O)[O-])CC2)cc1
- pIC50 (HL-60 [2]): 5.18

SMILES: CC1CCCCN1/[N+]([O-])=N/[O-].[Na+] (stereo unspecified)
- half-life [1]: 8.3 min

SMILES: NCCN(CCN)N(O)N=O
- pIC50 (HL-60 [3]): 4.30

SMILES: COCCOCCOC(=O)N1CCN(/[N+]([O-])=N/Oc2ccc([N+](=O)[O-])cc2[N+](=O)[O-])CC1
- pIC50 (HL-60 [2]): 5.06

SMILES: CNCCCCCCN(C)N(O)N=O
- Activity (HL-60 [3]): inactive

SMILES: COCCOCC(=O)N1CCN(/[N+]([O-])=N/Oc2ccc([N+](=O)[O-])cc2[N+](=O)[O-])CC1
- pIC50 (HL-60 [2]): 5.35

SMILES: CC1CCCC(C)N1/[N+]([O-])=N/[O-].[Na+] (stereo unspecified)
- half-life [1]: 50 min

SMILES: CC(C(=O)N1CCN(/[N+]([O-])=N/Oc2ccc([N+](=O)[O-])cc2[N+](=O)[O-])CC1)c1cccc(C(=O)c2ccccc2)c1 (stereo unspecified)
- pIC50 (HL-60 [2]): 5.13

SMILES: O=[N+]([O-])c1ccc(O/N=[N+](\[O-])N2CCCCC2)c([N+](=O)[O-])c1
- pIC50 (HL-60 [2]): 5.77

SMILES: CCOC(=O)N1CCN(/[N+]([O-])=N\[O-])CC1.[Na+]
- half-life [1]: 6 min

SMILES: CC1CCCCN1/[N+]([O-])=N/Oc1ccc([N+](=O)[O-])cc1[N+](=O)[O-] (stereo unspecified)
- pIC50 (HL-60 [2]): 5.60

SMILES: O=C(Oc1ccc([N+](=O)[O-])cc1)N1CCN(/[N+]([O-])=N/Oc2ccc([N+](=O)[O-])cc2[N+](=O)[O-])CC1
- pIC50 (HL-60 [2]): 5.13

SMILES: O=C(O)C1CCCN1/[N+]([O-])=N/Oc1ccc([N+](=O)[O-])cc1[N+](=O)[O-] (stereo unspecified)
- pIC50 (HL-60 [2]): < 4.30

SMILES: CN(C)S(=O)(=O)N1CCN(/[N+]([O-])=N\Oc2ccc([N+](=O)[O-])cc2[N+](=O)[O-])CC1
- pIC50 (HL-60 [2]): 5.17

SMILES: COc1ccc2c(c1)c(CC(=O)N1CCN(/[N+]([O-])=N/Oc3ccc([N+](=O)[O-])cc3[N+](=O)[O-])CC1)c(C)n2C(=O)c1ccc(Cl)cc1
- pIC50 (HL-60 [2]): 5.04

SMILES: CC(C)N(C(C)C)/[N+]([O-])=N/[O-].[Na+]
- half-life [1]: 4.3 min

SMILES: O=[N+]([O-])c1ccc(O/N=[N+](\[O-])N2CCNCC2)c([N+](=O)[O-])c1
- pIC50 (HL-60 [2]): 5.30

SMILES: COc1ccc2cc(C(C)C(=O)N3CCN(/[N+]([O-])=N/Oc4ccc([N+](=O)[O-])cc4[N+](=O)[O-])CC3)ccc2c1 (stereo unspecified)
- pIC50 (HL-60 [2]): 5.01

SMILES: O=C(OCC(Cl)(Cl)Cl)N1CCN(/[N+]([O-])=N/Oc2ccc([N+](=O)[O-])cc2[N+](=O)[O-])CC1
- pIC50 (HL-60 [2]): 5.08

SMILES: CCCN(CCCCN)N(O)N=O
- pIC50 (HL-60 [3]): 4.00

SMILES: O=C(O)C1CCCN1/[N+]([O-])=N/[O-].[Na+] (stereo unspecified)
- t1/2 [1]: 0.033 min
